Tests used:
RET = RET (Homo sapiens (Human), UniProt P07949); assay: Inhibitory activity on RET kinase (HTRF KinEASE-TK); format: biochemical; conditions: ATP 16 μM
Description: 3) Formulate 2.5× kinase with 1× kinase reaction buffer.

[1] = test system: diabetic foot animal model; assay: Diabetic foot animal model (high-fat diet mice, back wound); format: in vivo, C57BL/6 male mice
Description: Twenty 2-month-old normal wild-type C57BL/6 male mice were ordered from Jicai Pharmaceutical and divided into two groups of 10 each. One group was fed a standard diet (SD), and the other group was fed a 60% high-fat diet (HFD) to induce obesity. Both groups were fed under the same conditions for about 6 months. Additionally, five 2-month-old young male mice were ordered to perform subsequent wound modeling and comparison with the SD group (8 months old, 10 mice) and the HFD group (8 months old, 10 mice). Mice were anesthetized with isoflurane, and a razor was used to remove the back hair, exposing the back skin. A marker pen and ruler were used to draw a 1.0 cm×0.5 cm rectangular area on each side of the back. A sterilized surgical scissor was used to cut away the skin in this area without damaging the subcutaneous tissue. After the mice regained consciousness, they were carefully placed back in their cages. The animals were euthanized at specified time intervals after the injury, and the wound tissue was collected for subsequent experiments and analysis. After creating wounds on the left and right sides of the mouse's back, the mice were grouped and administered drugs as indicated in the table below (where Control represents a blank drug control with DMSO+vehicle). The 1228 gel (0.5% or 1%) was administered every 12 hours, with a dose of 50 mg each time. The wounds were photographed and weighed daily (every 24 hours) for 7 days, and then samples were collected at the 7th day. Specific operational details are described in the section “3. Sample Collection and Analysis” below. [table] After anesthesia, the mice were placed on an operation table with their backs extended, and high-definition photographs of the entire back and the local wound area of the mice were taken (including a ruler). […] The body weight of the mice was also measured to analyze the impact of the drug on systemic metabolism. On the seventh day of wound repair after modeling on the mouse's back, the mice were euthanized, and the wound tissue was collected for subsequent experiments and analysis, including tissue from the center of the wound and distal non-wounded control skin. The tissue was embedded in OCT and subjected to cryosectioning for subsequent HE or multiple staining analysis. Mouse skin tissue was placed in an embedding box filled with OCT (Tissue-Tek® O.C.T. Compound, Catalog #4583, Sakura Finetek USA Inc) and laid flat on dry ice to quick-freeze. Once the OCT was fully frozen, the embedding box was transferred to a −20° C. freezer for storage. Before sectioning, the cryostat was pre-cooled to −25° C. […] The flattened tissue sections were attached to glass slides and checked under a microscope for completeness. The sections were left to air-dry at room temperature for 2-3 hours before being stored in a −20° C. freezer. The sections were taken out of the −20° C. freezer and allowed to thaw at room temperature, and the condensation water was dried for 10-20 minutes until completely dry. The sections were then fixed with 500-1000 μL of frozen 4% paraformaldehyde (4% paraformaldehyde prepared by diluting 10 ml of 16% PFA—paraformaldehyde in 30 ml of frozen PBS and stored at 4° C.) for 10 minutes at room temperature. The sections were washed once with dH2O (single distilled water) (incubation<1 minute). After washing, hematoxylin solution was added, and the sections were incubated for 55-60 seconds, then quickly washed three times with running tap water until no blue dye was visible. Eosin solution was added next, and the sections were incubated for 25-30 seconds, then quickly washed three times with running tap water, followed by washing with 70% ethanol once. The sections were dehydrated in 100% ethanol for 5 minutes and then in xylene for 5 minutes. Finally, the sections were coverslipped with a neutral resin, taking care not to trap air bubbles when placing the coverslip with forceps. […]

TRKA = TRKA (Homo sapiens (Human), UniProt P04629); assay: Inhibitory activity on TRKA (ADP-Glo Kinase Assay)
TRKB = TRKB (Homo sapiens (Human), UniProt Q16620); assay: Inhibitory activity on TRKB (ADP-Glo Kinase Assay)
TRKC = TRKC (Homo sapiens (Human), UniProt Q16288); assay: Inhibitory activity on TRKC (ADP-Glo Kinase Assay)
Chain of TRKC (Q16288 32-839): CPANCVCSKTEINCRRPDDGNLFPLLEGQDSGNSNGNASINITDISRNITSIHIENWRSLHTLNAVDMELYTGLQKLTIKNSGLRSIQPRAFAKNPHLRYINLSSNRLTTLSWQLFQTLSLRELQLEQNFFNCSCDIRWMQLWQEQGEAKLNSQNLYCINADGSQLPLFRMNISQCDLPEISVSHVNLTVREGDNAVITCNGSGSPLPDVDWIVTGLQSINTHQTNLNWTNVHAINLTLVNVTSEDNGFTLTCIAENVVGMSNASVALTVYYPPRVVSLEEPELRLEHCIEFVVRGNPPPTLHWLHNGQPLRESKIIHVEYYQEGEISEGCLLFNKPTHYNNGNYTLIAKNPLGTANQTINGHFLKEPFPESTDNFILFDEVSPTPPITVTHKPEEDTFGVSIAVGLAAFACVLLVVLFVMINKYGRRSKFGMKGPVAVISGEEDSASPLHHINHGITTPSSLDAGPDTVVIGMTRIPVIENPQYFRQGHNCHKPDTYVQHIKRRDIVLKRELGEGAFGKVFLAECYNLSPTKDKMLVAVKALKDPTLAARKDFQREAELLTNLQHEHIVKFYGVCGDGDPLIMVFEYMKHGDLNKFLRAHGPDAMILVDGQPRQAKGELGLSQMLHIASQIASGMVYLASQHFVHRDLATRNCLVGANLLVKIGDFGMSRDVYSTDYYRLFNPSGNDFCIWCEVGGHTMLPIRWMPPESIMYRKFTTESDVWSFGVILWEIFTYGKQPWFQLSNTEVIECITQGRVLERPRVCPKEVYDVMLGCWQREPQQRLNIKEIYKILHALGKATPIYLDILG

Chain of TRKA (P04629 33-796 limits assumed): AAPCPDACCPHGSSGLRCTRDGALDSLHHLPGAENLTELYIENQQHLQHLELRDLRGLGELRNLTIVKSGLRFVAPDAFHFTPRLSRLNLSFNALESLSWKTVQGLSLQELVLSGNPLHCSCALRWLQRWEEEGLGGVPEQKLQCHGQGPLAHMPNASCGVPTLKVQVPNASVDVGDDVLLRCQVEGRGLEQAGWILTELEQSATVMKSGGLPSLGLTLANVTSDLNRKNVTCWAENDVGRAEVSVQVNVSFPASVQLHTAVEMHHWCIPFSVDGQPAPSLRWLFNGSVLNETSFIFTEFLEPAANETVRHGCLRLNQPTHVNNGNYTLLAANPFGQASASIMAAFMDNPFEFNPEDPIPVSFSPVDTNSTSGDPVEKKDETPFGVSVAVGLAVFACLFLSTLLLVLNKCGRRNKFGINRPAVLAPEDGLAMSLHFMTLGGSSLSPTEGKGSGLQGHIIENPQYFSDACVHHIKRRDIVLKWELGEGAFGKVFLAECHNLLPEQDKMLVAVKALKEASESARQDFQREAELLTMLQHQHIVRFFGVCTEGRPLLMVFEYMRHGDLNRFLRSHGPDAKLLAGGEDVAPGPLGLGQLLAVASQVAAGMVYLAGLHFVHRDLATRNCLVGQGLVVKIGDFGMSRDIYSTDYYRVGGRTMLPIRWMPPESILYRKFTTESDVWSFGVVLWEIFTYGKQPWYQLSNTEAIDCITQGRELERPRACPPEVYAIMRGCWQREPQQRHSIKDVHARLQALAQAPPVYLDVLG
Chain of RET (P07949 29-1114): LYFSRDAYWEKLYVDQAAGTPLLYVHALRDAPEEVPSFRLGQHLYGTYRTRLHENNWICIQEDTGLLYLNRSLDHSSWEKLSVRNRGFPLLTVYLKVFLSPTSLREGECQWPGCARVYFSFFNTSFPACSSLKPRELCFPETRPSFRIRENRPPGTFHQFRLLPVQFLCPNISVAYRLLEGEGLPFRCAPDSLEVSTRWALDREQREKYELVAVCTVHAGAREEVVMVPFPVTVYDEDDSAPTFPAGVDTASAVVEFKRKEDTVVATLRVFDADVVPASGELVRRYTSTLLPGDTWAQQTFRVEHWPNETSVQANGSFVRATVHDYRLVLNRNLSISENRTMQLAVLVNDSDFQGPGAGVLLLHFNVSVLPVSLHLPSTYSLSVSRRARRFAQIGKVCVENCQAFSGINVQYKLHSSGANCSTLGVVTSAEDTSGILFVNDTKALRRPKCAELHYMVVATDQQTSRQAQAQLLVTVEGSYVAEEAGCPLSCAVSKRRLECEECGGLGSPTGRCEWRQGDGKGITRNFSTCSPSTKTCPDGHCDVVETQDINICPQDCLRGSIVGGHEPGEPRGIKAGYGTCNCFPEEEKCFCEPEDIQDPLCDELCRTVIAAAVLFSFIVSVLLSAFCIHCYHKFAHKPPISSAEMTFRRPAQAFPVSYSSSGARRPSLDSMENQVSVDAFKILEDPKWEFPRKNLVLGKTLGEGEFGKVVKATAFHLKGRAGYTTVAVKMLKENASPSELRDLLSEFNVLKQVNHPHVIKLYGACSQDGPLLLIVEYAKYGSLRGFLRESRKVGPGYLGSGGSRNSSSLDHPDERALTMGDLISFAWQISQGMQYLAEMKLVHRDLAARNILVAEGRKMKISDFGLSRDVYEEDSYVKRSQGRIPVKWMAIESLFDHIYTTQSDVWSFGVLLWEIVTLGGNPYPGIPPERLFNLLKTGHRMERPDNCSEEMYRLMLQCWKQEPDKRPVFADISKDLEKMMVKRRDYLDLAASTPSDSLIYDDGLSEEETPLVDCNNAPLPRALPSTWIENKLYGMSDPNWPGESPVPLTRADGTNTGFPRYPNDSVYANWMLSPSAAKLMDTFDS
Chain of TRKB (Q16620 32-822): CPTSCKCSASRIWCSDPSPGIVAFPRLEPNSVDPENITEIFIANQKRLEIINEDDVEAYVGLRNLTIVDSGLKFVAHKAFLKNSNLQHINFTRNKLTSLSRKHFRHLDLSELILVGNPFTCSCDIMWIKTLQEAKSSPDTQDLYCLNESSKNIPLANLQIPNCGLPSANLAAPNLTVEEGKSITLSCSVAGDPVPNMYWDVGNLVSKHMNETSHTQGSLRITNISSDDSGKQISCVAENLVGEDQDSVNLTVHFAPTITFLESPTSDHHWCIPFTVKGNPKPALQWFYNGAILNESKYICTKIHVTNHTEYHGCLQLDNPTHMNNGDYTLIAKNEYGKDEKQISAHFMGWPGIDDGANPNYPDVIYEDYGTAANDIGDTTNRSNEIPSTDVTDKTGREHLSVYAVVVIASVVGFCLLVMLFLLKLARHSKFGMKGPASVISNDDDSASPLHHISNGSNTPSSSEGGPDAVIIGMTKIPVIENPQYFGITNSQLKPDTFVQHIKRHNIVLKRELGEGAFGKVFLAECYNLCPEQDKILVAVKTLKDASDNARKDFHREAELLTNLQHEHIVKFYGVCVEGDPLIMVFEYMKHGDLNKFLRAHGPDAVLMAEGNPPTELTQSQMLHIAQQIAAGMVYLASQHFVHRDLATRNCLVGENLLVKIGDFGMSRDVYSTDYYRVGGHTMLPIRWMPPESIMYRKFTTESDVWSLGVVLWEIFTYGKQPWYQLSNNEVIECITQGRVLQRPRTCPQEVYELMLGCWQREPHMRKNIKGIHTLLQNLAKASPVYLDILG

| Structure (SMILES) | IC50 (RET) | Epithelial healing (wound non-healing distance) ([1]; 1% MDI-1228 gel, HFD group) | Area of green lipid droplets in the wound center (Bodipy staining) ([1]; MDI-1228 gel 50 mg every 12 hours, 7 days) | Size of the adipocytes in the wound center (HE staining) ([1]; MDI-1228 gel 50 mg every 12 hours, 7 days, vs. control) | IC50 (TRKA) | IC50 (TRKB) | IC50 (TRKC) | Lipolysis in the diabetic foot model ([1]; conclusion / summary statement) | Myofibroblasts at the wound ([1]; conclusion / summary statement) | Wound healing ([1]; conclusion / summary statement) |
| --- | --- | --- | --- | --- | --- | --- | --- | --- | --- | --- |
| CCc1cc(O)c(F)cc1-c1ccc2c(-c3nc4c([nH]3)CN(C(=O)N3CC[C@H](O)C3)C4)n[nH]c2c1 [MDI-1228, (S)-(2-(6-(2-ethyl-5-fluoro-4-hydroxyphenyl)-1H-indazol-3-yl)-4,6-dihydropyrrolo[3,4-d]imidazol-5-(1H)-yl)(3-hydroxylpyrrolidin-1-yl)ketone] | 0.62 nM | could effectively promote epithelial healing | significantly reduced | significantly reduced | 1.82 nM | 1.77 nM | 0.6 nM |  |  |  |
| CCc1cc(O)c(F)cc1-c1ccc2c(-c3nc4c([nH]3)CN(C(=O)NCC(O)CCl)C4)n[nH]c2c1 (centres unmarked) [MDI-1288] | 3.43 nM |  |  |  | 0.89 nM | 1.04 nM | 0.59 nM | can significantly promote lipolysis | significantly increase the proportion of myofibroblasts | effectively promote wound healing |
